Activity calls are given as the source filed them. The calls are words filed in the database; no cut-off is given here.
Columns and labels:
Plasmodium berghei [1] = test: Antimalarial activity against Plasmodium berghei NK-65 infected in ICR mouse assessed as parasitemia at 50 mg/kg, po administered 4 days post-infection measured after 18 hrs (reference value: 30 to 40%); type: functional
Plasmodium berghei [2] = test: Down regulation of heat shock protein (gi68071723) in Plasmodium berghei NK-65 infected in ICR mouse at 50 mg/kg, po administered 4 days post-infection measured after 18 hrs in the host blood by 2D-gel electrophoresis; type: functional, organism-based; design: dose 50 mg/kg
Mus musculus [3] = test: Down regulation of beta-actin in ICR mouse infected with Plasmodium berghei NK-65 at 50 mg/kg, po administered 4 days post-infection measured after 18 hrs in host blood by 2D-gel electrophoresis; type: functional, organism-based; design: dose 50 mg/kg
Plasmodium berghei [4] = test: Down regulation of […] precursor in Plasmodium berghei NK-65 infected in ICR mouse at 50 mg/kg, po administered 4 days post-infection measured after 18 hrs in the host blood by 2D-gel electrophoresis; type: functional, organism-based; design: dose 50 mg/kg
Plasmodium berghei [5] = test: Down regulation of berghepain-2 in Plasmodium berghei NK-65 infected in ICR mouse at 50 mg/kg, po administered 4 days post-infection measured after 18 hrs in the host blood by 2D-gel electrophoresis; type: functional, organism-based; design: dose 50 mg/kg
Plasmodium berghei [6] = test: Down regulation of hypothetical protein (gi68067763) in Plasmodium berghei NK-65 infected in ICR mouse at 50 mg/kg, po administered 4 days post-infection measured after 18 hrs in the host blood by 2D-gel electrophoresis; type: functional, organism-based; design: dose 50 mg/kg
Plasmodium berghei [7] = test: Down regulation of hypothetical protein (gi68064486) in Plasmodium berghei NK-65 infected in ICR mouse at 50 mg/kg, po administered 4 days post-infection measured after 18 hrs in the host blood by 2D-gel electrophoresis; type: functional, organism-based; design: dose 50 mg/kg
Mus musculus [8] = test: Up regulation of unnamed protein product (gi74220592) in ICR mouse infected with Plasmodium berghei NK-65 at 50 mg/kg, po administered 4 days post-infection measured after 18 hrs in host blood by 2D-gel electrophoresis; type: functional, organism-based; design: dose 50 mg/kg
Mus musculus [9] = test: Up regulation of unnamed protein product (gi74005074) in ICR mouse infected with Plasmodium berghei NK-65 at 50 mg/kg, po administered 4 days post-infection measured after 18 hrs in host blood by 2D-gel electrophoresis; type: functional, organism-based; design: dose 50 mg/kg

`CCN(CC)c1ccc2nc3c4ccccc4/c(=N/c4ccncc4)cc-3oc2c1.Cl` was tested, and the Activity (Plasmodium berghei [1]) was 20%, the Activity (Plasmodium berghei [2]) was “Active” and the Activity (Mus musculus [3]) was “Active”. For the same compound, the Activity (Plasmodium berghei [4]) was “Active”, the Activity (Plasmodium berghei [5]) was “Active” and the Activity (Plasmodium berghei [6]) was “Active”. The Activity (Plasmodium berghei [7]) was “Active”, the Activity (Mus musculus [8]) was “Active” and the Activity (Mus musculus [9]) was “Active”.
